The target of one assay is T1, RNR (RNR1:RNR2 1:1) (Homo sapiens, UniProt P23921).
T1 sequence (P23921 1-792): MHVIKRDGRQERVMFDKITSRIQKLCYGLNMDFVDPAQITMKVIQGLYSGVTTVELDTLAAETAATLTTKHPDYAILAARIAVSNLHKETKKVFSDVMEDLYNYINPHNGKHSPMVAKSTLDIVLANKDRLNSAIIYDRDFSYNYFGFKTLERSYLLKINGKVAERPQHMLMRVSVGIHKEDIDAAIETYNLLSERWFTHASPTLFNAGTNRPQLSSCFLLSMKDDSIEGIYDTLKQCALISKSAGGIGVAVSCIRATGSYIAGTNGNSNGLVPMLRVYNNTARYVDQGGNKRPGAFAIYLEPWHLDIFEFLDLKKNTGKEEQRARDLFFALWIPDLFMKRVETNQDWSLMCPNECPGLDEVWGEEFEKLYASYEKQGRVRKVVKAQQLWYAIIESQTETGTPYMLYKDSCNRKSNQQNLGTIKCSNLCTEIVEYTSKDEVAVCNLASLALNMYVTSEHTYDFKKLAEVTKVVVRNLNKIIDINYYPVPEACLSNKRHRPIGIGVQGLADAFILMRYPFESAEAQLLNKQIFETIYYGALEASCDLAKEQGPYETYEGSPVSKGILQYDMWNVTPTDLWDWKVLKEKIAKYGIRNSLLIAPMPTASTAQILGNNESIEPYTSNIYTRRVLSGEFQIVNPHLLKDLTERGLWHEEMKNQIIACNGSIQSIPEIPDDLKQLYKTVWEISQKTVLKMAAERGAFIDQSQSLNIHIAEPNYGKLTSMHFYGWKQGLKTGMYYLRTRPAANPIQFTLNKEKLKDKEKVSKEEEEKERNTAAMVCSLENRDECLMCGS
The experiment in a line: RNR enzyme activity, rapid-fire mass spectrometry (RF/MS) assay. The class given is biochemical. The conditions noted are these: [RNR] 50 nM, 1:1 RNR1:RNR2; CDP 5 μM; ATP 1 mM; 37° C., 45 min; compounds screened up to 50 μM. The protocol: A rapid-fire mass spectrometry (RF/MS) assay was used to assess RNR enzyme activity using a 384 well plate and a robotic platform.
The plate layout included two validated reference compounds (Triapine (3-AP) and Hydroxyurea (HU)): • A dose response in duplicate; top concentration: 5 μM (3-AP) and 250 μM (HU), semi-log dilutions. • Spike wells in triplicate randomly spotted at four concentrations: • 250 μM, 100 μM, 30 μM and 2 μM for HU • 5 μM, 2 μM, 0.6 μM and 0.04 μM for 3-AP
First, the multidrop pipes were saturated for 30 minutes with enzymatic solution. Then 30 μL of Stop solution was distributed in column 24. Next, 15 μL of enzyme was distributed in column 1 to 24. Next, a pre-incubation step of 15 minutes at room temperature occurred, followed by distribution of 15 μL of substrate solution (column 1 to 24). Next, the plate was incubated for 45 minutes at 37° C. 30 μL of Stop solution was then distributed to columns 1 to 23.
The final parameters for the enzyme reactions were: • Incubation: 37° C., 45 min • [CDP]: 5 μM; [ATP]: 1 mM; [NADPH]: No • [RNR]final: 50 nM with 1:1 (RNR1:RNR2) ratio • Final volume: 30 μL • Stop solution: 6% HCOOH in water

Assay [1] concerns pCHK1 (S345) in Colo320 DM cells. The experiment in a line: Alphalisa assay, detection of pCHK1 (S345) in Colo320 DM cells. The conditions noted are these: Homo sapiens, COLO 320DM, compound overnight (approximately 16 hours). The class given is cell-based, human. The protocol: Colo320 DM cells (ATCC #CCL-220, derived from human colorectal adenocarcinoma, Dukes' type C) were seeded on a […], cell culture treated assay plate at a density of 50,000 cells/well in 200 μL of RPMI-1640 media supplemented with 10% Fetal Bovine Serum and incubated at 37° C. overnight. The following day, test compound dilutions were added directly to the plated cells by a Tecan digital dispenser to a final DMSO concentration of <0.5%. and incubated at 37° C. overnight (approximately 16 hours). The following day all cell culture media was removed from the cells. 75 μL of 1×AlphaLisa lysis buffer was added to each well and plates were agitated on a shaker for 30 minutes at room temperature. The lysis of cells and detection of pCHK1 (S345) were performed with reagents contained within the AlphaLisa Sure Fire assay kit (Perkin Elmer #ALSU-PCHK1-A) according to the manufacturer's instructions. 10 μL of each lysate was then transferred to a white, 384-well assay plate (Perkin Elmer #6008280). 5 μL of Acceptor mix was then added to each well of lysate in the white, 384-well assay plate and incubated in the dark at room temperature for 60 minutes. 5 μL of Donor mix was then added to each well of the white, 384-well assay plate in subdued light and incubated at room temperature for 60 minutes. Plates were read on an Alpha Technology-compatible plate reader using standard AlphaLisa settings.
In general terms: Bead proximity is the source of the signal in Alpha formats.

We go through 15 compounds from patent US20260085067A1, “CYCLIC SULFONAMIDE RIBONUCLEOTIDE REDUCTASE (RNR) INHIBITORS AND USES THEREOF” (Boundless Bio, Inc., priority 2022, published 2026).

On to `Cc1cc2c(cc1Cl)OCCN([C@H](c1n[nH]c(=O)o1)[C@H](C)c1c(F)ccc(C)c1C)S2(=O)=O` [Example 15, 5-((1S,2R)-1-(7-chloro-8-methyl-1,1-dioxido-3,4-dihydro-2H-benzo[b][1,4,5]oxathiazepin-2-yl)-2-(6-fluoro-2,3-dimethylphenyl)propyl)-1,3,4-oxadiazol-2 (3H)-one], for which the IC50 against RNR (RNR1:RNR2 1:1) is 100 to 1000 nM; in assay [1] it was greater than 50 µM.

For the compound `Cc1ccc(F)c([C@@H](C)[C@@H](c2n[nH]c(=O)o2)N2CCOc3cc(Cl)cnc3S2(=O)=O)c1C` [Example 16, 5-((1S,2R)-1-(7-chloro-1,1-dioxido-3,4-dihydro-2H-pyrido[3,2-b][1,4,5]oxathiazepin-2-yl)-2-(6-fluoro-2,3-dimethylphenyl)propyl)-1,3,4-oxadiazol-2 (3H)-one], the figures for the IC50 (on RNR (RNR1:RNR2 1:1); in assay [1]) were 20 to 100 nM and 1 to 5 µM, respectively.

For `Cc1ccc(F)c([C@@H](C)[C@@H](c2n[nH]c(=O)o2)N2CCOc3cc(Cl)ncc3S2(=O)=O)c1C` [Example 17, 5-((1S, 2R)-1-(7-chloro-1,1-dioxido-3,4-dihydro-2H-pyrido[4,3-b][1,4,5]oxathiazepin-2-yl)-2-(6-fluoro-2,3-dimethylphenyl)propyl)-1,3,4-oxadiazol-2 (3H)-one], the half-inhibitory concentration (IC50) is 1000 to 10000 nM at RNR (RNR1:RNR2 1:1) and greater than 50 µM in assay [1].

On to `COC(=O)c1cc(Cl)cc2c1S(=O)(=O)N([C@H](c1n[nH]c(=O)o1)[C@H](C)c1c(F)ccc(C)c1C)CCO2` [Example 18, methyl 7-chloro-2-((1S,2R)-2-(6-fluoro-2,3-dimethylphenyl)-1-(5-oxo-4,5-dihydro-1,3,4-oxadiazol-2-yl)propyl)-3,4-dihydro-2H-benzo[b][1,4,5]oxathiazepine-9-carboxylate 1,1-dioxide], for which the IC50 against RNR (RNR1:RNR2 1:1) fell in the range of 100 to 1000 nM; in assay [1], 10 to 50 µM.

In the case of `COC(=O)c1cc(Cl)cc2c1S(=O)(=O)N([C@H](c1n[nH]c(=O)o1)[C@H](C)c1c(F)ccc(C)c1C)CN2C` [Example 19, methyl 6-chloro-2-((1S,2R)-2-(6-fluoro-2,3-dimethylphenyl)-1-(5-oxo-4,5-dihydro-1,3,4-oxadiazol-2-yl)propyl)-4-methyl-3,4-dihydro-2H-benzo[e][1,2,4]thiadiazine-8-carboxylate 1,1-dioxide], the IC50 on RNR (RNR1:RNR2 1:1) lay in the range of 20 to 100 nM; in assay [1] it was 1 to 5 µM.

On to `Cc1ccc(F)c([C@@H](C)[C@@H](c2n[nH]c(=O)o2)N2C3CCCN3c3cc(Cl)ccc3S2(=O)=O)c1C` (stereo partly drawn) [Example 20, 5-((1S,2R)-1-(8-chloro-5,5-dioxido-1,2,3,3a-tetrahydro-4H-benzo[e]pyrrolo[2,1-c][1,2,4]thiadiazin-4-yl)-2-(6-fluoro-2,3-dimethylphenyl)propyl)-1,3,4-oxadiazol-2 (3H)-one], for which the IC50 against RNR (RNR1:RNR2 1:1) was less than 20 nM; in assay [1] it was 1 to 5 µM.

For `Cc1ccc(F)c([C@@H](C)[C@@H](c2n[nH]c(=O)o2)N2CCNc3cc(Cl)ccc3S2(=O)=O)c1C` [Example 21, 5-((1S,2R)-1-(7-chloro-1,1-dioxido-4,5-dihydrobenzo[f][1,2,5]thiadiazepin-2 (3H)-yl)-2-(6-fluoro-2,3-dimethylphenyl)propyl)-1,3,4-oxadiazol-2 (3H)-one], the values for the IC50 (on RNR (RNR1:RNR2 1:1); in assay [1]) were 20 to 100 nM and 1 to 5 µM, respectively.

Turning to `Cc1ccc(F)c([C@@H](C)[C@@H](c2n[nH]c(=O)o2)N2CN(C)c3cc(Cl)cc(C(N)=O)c3S2(=O)=O)c1C` [Example 22, 6-chloro-2-((1S,2R)-2-(6-fluoro-2,3-dimethylphenyl)-1-(5-oxo-4,5-dihydro-1,3,4-oxadiazol-2-yl)propyl)-4-methyl-3,4-dihydro-2H-benzo[e][1,2,4]thiadiazine-8-carboxamide 1,1-dioxide], the IC50 was less than 20 nM at RNR (RNR1:RNR2 1:1) and no more than 1 µM in assay [1].

Turning to `Cc1ccc(F)c([C@@H](C)[C@@H](c2n[nH]c(=O)o2)N2CCOc3cc(Cl)cc(C(N)=O)c3S2(=O)=O)c1C` [Example 23, 7-chloro-2-((1S,2R)-2-(6-fluoro-2,3-dimethylphenyl)-1-(5-oxo-4,5-dihydro-1,3,4-oxadiazol-2-yl)propyl)-3,4-dihydro-2H-benzo[b][1,4,5]oxathiazepine-9-carboxamide 1,1-dioxide], the half-inhibitory concentration (IC50) against RNR (RNR1:RNR2 1:1) was less than 20 nM; in assay [1], 1 to 5 µM.

Consider `Cc1ccc(F)c([C@@H](C)[C@@H](c2n[nH]c(=O)o2)N2CCOc3cc(Cl)cc(C)c3S2(=O)=O)c1C` [Example 24, 5-((1S,2R)-1-(7-chloro-9-methyl-1,1-dioxido-3,4-dihydro-2H-benzo[b][1,4,5]oxathiazepin-2-yl)-2-(6-fluoro-2,3-dimethylphenyl)propyl)-1,3,4-oxadiazol-2 (3H)-one], for which the IC50 is 100 to 1000 nM at RNR (RNR1:RNR2 1:1) and greater than 50 µM in assay [1].

In the case of `CC(=O)c1c(Cl)ccc2c1OCCN([C@H](c1n[nH]c(=O)o1)[C@H](C)c1c(F)ccc(C)c1C)S2(=O)=O` [Example 25, 5-((1S,2R)-1-(6-acetyl-7-chloro-1,1-dioxido-3,4-dihydro-2H-benzo[b][1,4,5]oxathiazepin-2-yl)-2-(6-fluoro-2,3-dimethylphenyl)propyl)-1,3,4-oxadiazol-2 (3H)-one], the concentration for half-maximal inhibition (IC50) was less than 20 nM against RNR (RNR1:RNR2 1:1) and 1 to 5 µM in assay [1].

For `Cc1ccc(F)c([C@@H](C)[C@@H](c2n[nH]c(=O)o2)N2CN(C)c3cc(Cl)cc(C)c3S2(=O)=O)c1C` [Example 26, 5-((1S,2R)-1-(6-chloro-4,8-dimethyl-1,1-dioxido-3,4-dihydro-2H-benzo[e][1,2,4]thiadiazin-2-yl)-2-(6-fluoro-2,3-dimethylphenyl)propyl)-1,3,4-oxadiazol-2 (3H)-one], the values for the IC50 (at RNR (RNR1:RNR2 1:1); in assay [1]) were 20 to 100 nM and 10 to 50 µM, respectively.

For `Cc1ccc(F)c([C@@H](C)[C@@H](c2n[nH]c(=O)o2)N2CCOc3cc(Cl)ncc3S2(=O)=O)c1C` [Example 27, 5-((1S,2R)-1-(7-chloro-1,1-dioxido-3,4-dihydro-2H-pyrido[4,3-b][1,4,5]oxathiazepin-2-yl)-2-(6-fluoro-2,3-dimethylphenyl)propyl)-1,3,4-oxadiazol-2 (3H)-one], the IC50 fell in the range of 1000 to 10000 nM at RNR (RNR1:RNR2 1:1) and 10 to 50 µM in assay [1].

On to `COCCCN1CN([C@H](c2n[nH]c(=O)o2)[C@H](C)c2c(F)ccc(C)c2C)S(=O)(=O)c2ccc(Cl)cc21` [Example 30, 5-((1S,2R)-1-(6-chloro-4-(3-methoxypropyl)-1,1-dioxido-3,4-dihydro-2H-benzo[e][1,2,4]thiadiazin-2-yl)-2-(6-fluoro-2,3-dimethylphenyl)propyl)-1,3,4-oxadiazol-2 (3H)-one], for which the IC50 was less than 20 nM against RNR (RNR1:RNR2 1:1) and no more than 1 µM in assay [1].

With `Cc1ccc(F)c([C@@H](C)[C@@H](c2n[nH]c(=O)o2)N2CN(C)c3c(ccc(Cl)c3C)S2(=O)=O)c1C` [Example 32, 5-((1S,2R)-1-(6-chloro-4,5-dimethyl-1,1-dioxido-3,4-dihydro-2H-benzo[e][1,2,4]thiadiazin-2-yl)-2-(6-fluoro-2,3-dimethylphenyl)propyl)-1,3,4-oxadiazol-2 (3H)-one], the 50% inhibitory concentration (IC50) fell in the range of 20 to 100 nM against RNR (RNR1:RNR2 1:1) and 10 to 50 µM in assay [1].

For orientation: IC50 means the midpoint of a concentration-inhibition curve. A higher IC50 goes with lower potency.
